From patent US20060148014A1, “Tubulin isotype screening in cancer therapy using hemiasterlin analogs” (priority 2004, published 2006)
Where two headings read alike, the source gives them in different places. Values belong to the molecule of their own block, whether it stands above or below them.

Key:
[1] = tested on: panel of 19 human breast cancer cell lines; assay: Cell growth inhibition assay, panel of 19 human breast cancer cell lines; assay type: cell-based; settings: panel of 19 human breast cancer cell lines
From the text: (§1) The following human breast cancer cell lines were obtained from the ATCC. Cells were maintained according to ATCC-recommended culture conditions. AU565 (ATCC Catalog No. ATCC Catalog. No. CRL-2351), BT-20 (ATCC Catalog No. HTB-19), MCF7 (ATCC Catalog No. HTB22), MDA-MB-231 (ATCC Catalog No. HTB-26), MDA-MB-435 (ATCC Catalog No. HTB-129), MDA-MB-468 (ATCC Catalog No. HTB-132), HCC38 (ATCC Catalog No. CRL-2314), HCC70 (ATCC Catalog No. CRL-2315), HCC1143 (ATCC Catalog No. CRL-2321), HCC1428 (ATCC Catalog No. CRL-2327), HCC1500 (ATCC Catalog No. CRL-2329), HCC1806 (ATCC Catalog No. CRL-2335), HCC1954 (ATCC Catalog No. CRL-2338), HCC2218 (ATCC Catalog No. CRL-2343), UACC-812 (ATCC Catalog No. CRL-1897), UACC-893 (ATCC Catalog No. CRL-1902), ZR-75-1 (ATCC Catalog No. CRL-1500), ZR-75-30 (ATCC Catalog No. CRL-1504).
(§2) Cultured human breast cancer cells were placed in 96-well plates and grown in the continuous presence of test compounds for 4 or 7 days. To expose the cells to test compounds for 7 days, medium was replaced with fresh medium containing compounds after 4 days of exposure and cells were incubated for 3 additional days. Cell growth was assessed using modifications (Amin et al., Cancer Res., 47:6040-6045, 1987; incorporated herein by reference) of a methylene blue-based microculture assay (Finlay et al., Anal. Biochem., 139:272-277, 1984; incorporated herein by reference).
Antiproliferative effects of four tubulin-binding anticancer agents were evaluated by a methylene blue-based cell growth inhibin assay in a panel of 19 human breast cancer cell lines. The following agents were used in this study: halichondrin analog E7389, hemiasterlin analog E7974, vinblastine, and paclitaxel. Each IC50 determination was conducted in at least three separate experiments. A presence of multidrug resistance efflux pump (P-glycoprotein or PgP) could markedly affect sensitivity of cell lines to test agents and thus mask correlations between beta-tubulin expression and cell lines' sensitivity to test agents. Cell lines were therefore tested for evidence of PgP expression by monitoring effects of the PgP blocker verapamil (used at a 10 μM concentration) on paclitaxel sensitivity. No evidence for PgP expression was found in any of the cell lines tested (Table 4). […] Inter-drug correlations were seen between sensitivities to the three microtubule polymerization inhibitors E7974, E7389, and vinblastine, but not between the microtubule polymerization stabilizer paclitaxel.

[2] = tested on: HCC1806 human breast cancer cell line; assay: Cell growth inhibition assay (methylene blue), HCC1806; assay type: cell-based
From the text: as §1, §2
(§3) To investigate the possible expression of PgP by the cell lines used in this study, the antiproliferative effects of paclitaxel were determined in the presence and absence of verapamil, a known inhibitor of PgP.

[3] = tested on: HCC70 human breast cancer cell line; assay: Cell growth inhibition assay (methylene blue), HCC70; assay type: cell-based
From the text: as §1, §2, §3

[4] = tested on: ZR-75-1 human breast cancer cell line; assay: Cell growth inhibition assay (methylene blue), ZR-75-1; assay type: cell-based
From the text: as §1, §2, §3

[5] = tested on: HCC1143 human breast cancer cell line; assay: Cell growth inhibition assay (methylene blue), HCC1143; assay type: cell-based
From the text: as §1, §2, §3

[6] = tested on: UACC-893 human breast cancer cell line; assay: Cell growth inhibition assay (methylene blue), UACC-893; assay type: cell-based
From the text: as §1, §2, §3

[7] = tested on: MDA-MB-231 human breast cancer cell line; assay: Cell growth inhibition assay (methylene blue), MDA-MB-231; assay type: cell-based
From the text: as §1, §2, §3

[8] = tested on: HCC1954 human breast cancer cell line; assay: Cell growth inhibition assay (methylene blue), HCC1954; assay type: cell-based
From the text: as §1, §2, §3

[9] = tested on: UACC-812 human breast cancer cell line; assay: Cell growth inhibition assay (methylene blue), UACC-812; assay type: cell-based
From the text: as §1, §2, §3

[10] = tested on: HCC2218 human breast cancer cell line; assay: Cell growth inhibition assay (methylene blue), HCC2218; assay type: cell-based
From the text: as §1, §2, §3

[11] = tested on: HCC1419 human breast cancer cell line; assay: Cell growth inhibition assay (methylene blue), HCC1419; assay type: cell-based
Description: as §2, §3

[12] = tested on: ZR-75-30 human breast cancer cell line; assay: Cell growth inhibition assay (methylene blue), ZR-75-30; assay type: cell-based
From the text: as §1, §2, §3

[13] = tested on: cells expressing class II β-tubulin; settings: Haber et al. J. Biol. Chem. 1995; cited from earlier work
[14] = tested on: MCF-7 human breast cancer cell line; assay: Cell growth inhibition assay (methylene blue), MCF-7; assay type: cell-based
From the text: as §1, §2, §3

[15] = tested on: HCC1428 human breast cancer cell line; assay: Cell growth inhibition assay (methylene blue), HCC1428; assay type: cell-based
From the text: as §1, §2, §3

[16] = tested on: MDA-MB-435 human breast cancer cell line; assay: Cell growth inhibition assay (methylene blue), MDA-MB-435; assay type: cell-based
From the text: as §1, §2, §3

[17] = tested on: AU565 human breast cancer cell line; assay: Cell growth inhibition assay (methylene blue), AU565; assay type: cell-based
From the text: as §1, §2, §3

[18] = tested on: BT-20 human breast cancer cell line; assay: Cell growth inhibition assay (methylene blue), BT-20; assay type: cell-based
From the text: as §1, §2, §3

[19] = tested on: HCC1500 human breast cancer cell line; assay: Cell growth inhibition assay (methylene blue), HCC1500; assay type: cell-based
From the text: as §1, §2, §3

[20] = tested on: MDA-MB-468 human breast cancer cell line; assay: Cell growth inhibition assay (methylene blue), MDA-MB-468; assay type: cell-based
From the text: as §1, §2, §3

[21] = tested on: HCC38 human breast cancer cell line; assay: Cell growth inhibition assay (methylene blue), HCC38; assay type: cell-based
From the text: as §1, §2, §3

[22] = continuous presence of compound 4 or 7 days, at least three experiments, read-out: Average IC50
[23] = +10 μM verapamil (PgP blocker), read-out: Paclitaxel IC50 (+10 μM verapamil)
[24] = no verapamil, read-out: Paclitaxel IC50 (no verapamil)

SMILES: C/C(=C\[C@H](C(C)C)N(C)C(=O)[C@@H](NC(=O)[C@H]1CCCCN1C(C)C)C(C)(C)C)C(=O)O [E7974]
- fold-difference between IC50's in the most sensitive and the least sensitive cell line [1]: 6.8 fold

- IC50 ([2]; HCC-1806, +10 μM verapamil (PgP blocker), read-out: Paclitaxel IC50 (+10 μM verapamil)): 1.9 nM
- IC50 ([2]; HCC-1806, no verapamil, read-out: Paclitaxel IC50 (no verapamil)): 1.8 nM
- IC50 [2, 22]: 2.1 nM
- IC50 [4, 23]: 5.9 nM
- IC50 [4, 22]: 3.35 nM
- IC50 [4, 24]: 5.3 nM
- IC50 ([5]; HCC-1143, +10 μM verapamil (PgP blocker), read-out: Paclitaxel IC50 (+10 μM verapamil)): 2.9 nM
- IC50 ([5]; HCC-1143, no verapamil, read-out: Paclitaxel IC50 (no verapamil)): 2.8 nM
- IC50 [5, 22]: 2.11 nM
- IC50 [6, 23]: 4.1 nM
- IC50 [6, 22]: 2.73 nM
- IC50 [6, 24]: 6.3 nM
- IC50 [7, 23]: 5.1 nM
- IC50 [7, 22]: 5.07 nM
- IC50 [7, 24]: 4.9 nM
- IC50 ([8]; HCC-1954, +10 μM verapamil (PgP blocker), read-out: Paclitaxel IC50 (+10 μM verapamil)): 11.7 nM
- IC50 ([8]; HCC-1954, no verapamil, read-out: Paclitaxel IC50 (no verapamil)): 11.7 nM
- IC50 [8, 22]: 8.48 nM
- IC50 [9, 23]: 1.9 nM
- IC50 [9, 22]: 1.46 nM
- IC50 [9, 24]: 2.7 nM
- IC50 ([10]; HC-2218, continuous presence of compound 4 or 7 days, at least three experiments, read-out: Average IC50): 6.72 nM
- IC50 ([10]; HCC-2218, +10 μM verapamil (PgP blocker), read-out: Paclitaxel IC50 (+10 μM verapamil)): 5 nM
- IC50 ([10]; HCC-2218, no verapamil, read-out: Paclitaxel IC50 (no verapamil)): 5.6 nM
- IC50 ([11]; HCC-1419, +10 μM verapamil (PgP blocker), read-out: Paclitaxel IC50 (+10 μM verapamil)): 7 nM
- IC50 ([11]; HCC-1419, no verapamil, read-out: Paclitaxel IC50 (no verapamil)): 5.2 nM
- IC50 [11, 22]: 5.41 nM
- fold-difference between IC50's in the most sensitive and the least sensitive cell line [1]: 5.8 fold
- IC50 [12, 23]: 4.1 nM
- IC50 [12, 22]: 4.06 nM
- IC50 [12, 24]: 3.9 nM
- IC50 ([14]; MCF7, +10 μM verapamil (PgP blocker), read-out: Paclitaxel IC50 (+10 μM verapamil)): 2.7 nM
- IC50 ([14]; MCF7, continuous presence of compound 4 or 7 days, at least three experiments, read-out: Average IC50): 2.31 nM
- IC50 ([14]; MCF7, no verapamil, read-out: Paclitaxel IC50 (no verapamil)): 3.3 nM
- IC50 ([15]; HCC-1428, +10 μM verapamil (PgP blocker), read-out: Paclitaxel IC50 (+10 μM verapamil)): 9.5 nM
- IC50 ([15]; HCC-1428, no verapamil, read-out: Paclitaxel IC50 (no verapamil)): 9 nM
- IC50 [15, 22]: 5.03 nM
- IC50 [16, 23]: 2.7 nM
- IC50 [16, 22]: 2.42 nM
- IC50 [16, 24]: 2.6 nM
- IC50 ([17]; AU-565, +10 μM verapamil (PgP blocker), read-out: Paclitaxel IC50 (+10 μM verapamil)): 4.8 nM
- IC50 ([17]; AU-565, no verapamil, read-out: Paclitaxel IC50 (no verapamil)): 5.4 nM
- IC50 [17, 22]: 2.5 nM
- IC50 [18, 23]: 2.7 nM
- IC50 [18, 22]: 2.63 nM
- IC50 [18, 24]: 3.9 nM
- IC50 ([19]; HCC-1500, +10 μM verapamil (PgP blocker), read-out: Paclitaxel IC50 (+10 μM verapamil)): 3.2 nM
- IC50 ([19]; HCC-1500, no verapamil, read-out: Paclitaxel IC50 (no verapamil)): 4.6 nM
- IC50 [19, 22]: 2.48 nM
- IC50 [20, 23]: 5.4 nM
- IC50 [20, 22]: 4.3 nM
- IC50 [20, 24]: 5.1 nM
- IC50 ([21]; HCC-38, +10 μM verapamil (PgP blocker), read-out: Paclitaxel IC50 (+10 μM verapamil)): 6.2 nM
- IC50 ([21]; HCC-38, no verapamil, read-out: Paclitaxel IC50 (no verapamil)): 5.9 nM
- IC50 [21, 22]: 2.94 nM
SMILES: CC(=O)O[C@H]1C(=O)[C@@]2(C)[C@H]([C@H](OC(=O)c3ccccc3)[C@]3(O)C[C@H](OC(=O)[C@H](O)[C@@H](NC(=O)c4ccccc4)c4ccccc4)C(C)=C1C3(C)C)[C@]1(OC(C)=O)CO[C@@H]1C[C@@H]2O [Paclitaxel, paclitaxel]
- IC50 ([3]; HCC-70, +10 μM verapamil (PgP blocker), read-out: Paclitaxel IC50 (+10 μM verapamil)): 1.9 nM
- IC50 ([3]; HCC-70, no verapamil, read-out: Paclitaxel IC50 (no verapamil)): 2 nM
- IC50 [3, 22]: 2.25 nM
- effectiveness in treating cells expressing class II β-tubulin [13]: not be effective
